Laboratory results as given in US10238633B2, “Methods for treating pulmonary emphysema using substituted 2-Aza-bicyclo[2.2.1]heptane-3-carboxylic acid (benzyl-cyano-methyl)-amides inhibitors of Cathepsin C” (Boehringer Ingelheim International GmbH, priority 2013, dated 2019).

How the values were obtained:
[1] = Determination of metabolic stability with human liver microsomes; conditions: pooled human liver microsomes, 37° C., test compound 1 μM, NADPH
Protocol: Determination of Metabolic Stability with Human Liver Microsomes
The metabolic degradation of the test compound is assayed at 37° C. with pooled human liver microsomes. The final incubation volume of 100 μl per time point contains TRIS buffer pH 7.6 (0.1 M), magnesium chloride (5 mM), microsomal protein (1 mg/ml) and the test compound at a final concentration of 1 μM. Following a short preincubation period at 37° C., the reactions are initiated by addition of beta-nicotinamide adenine dinucleotide phosphate, reduced form (NADPH, 1 mM) and terminated by transferring an aliquot into acetonitrile after different time points. Additionally, the NADPH-independent degradation is monitored in incubations without NADPH, terminated at the last time point. The [%] remaining test compound after NADPH independent incubation is reflected by the parameter c(control) (metabolic stability). The quenched incubations are pelleted by centrifugation (10,000 g, 5 min). An aliquot of the supernatant is assayed by LC-MS/MS for the amount of parent compound.
The half-life (t1/2 INVITRO) is determined by the slope of the semilogarithmic plot of the concentration-time profile. The intrinsic clearance (CL_[sequence]) is calculated by considering the amount of protein in the incubation: CL_[sequence] [μl/min/mg protein]=(In 2/(half-life [min]*protein content [mg/ml]))*1,000.

[2] = tested on: Neutrophil elastase activity in U937 cells; test: Determination of neutrophil elastase activity in U937 cytosolic lysate preparation after incubation with test compound; type: cell-based; conditions: Homo sapiens, U-937, read-out: Reduction of NE-activity in U937 cells IC50
Protocol: Determination of Neutrophil Elastase Activity in U937 Cytosolic Lysate Preparation after Incubation with Test Compound
Optiplate 384F were purchased from PerkinElmer (Prod. No. #6007270). 24 well Nunclon cell culture plates (No. 142475) and 96 well plates (No. 267245) were from Nunc. Dimethylsulfoxid (DMSO) was from Sigma (Prod. No. D8418). Nonidet-P40 (NP40) was from USBiological (Prod. No. N3500)
Substrate, specific for Neutrophil elastase, was from Bachem (MeOSuc-Ala-Ala-Pro-Val-AMC; Prod. No. 1-1270).
Human neutrophil elastase was from Calbiochem (Prod. No. 324681)
Tris-buffer (100 mM Tris; 1M NaCL; pH 7.5)
Tris-buffer+HSA 0.1%; Human Serum Albumin from Calbiochem (Cat#. 126658)
Serine-protease buffer (20 mM Tris; 100 mM NaCL; pH 7.5)+0.1% HSA
Serine protease lysis buffer: 20 mM Tris-HCL; 100 mM NaCl pH 7.5; +0.2% Nonidet-P40;
PBS: phosphate buffered saline, without Ca and Mg, from Gibco
U937 from ECACC (Cat. No. 85011440) cultured in suspension at 37° C. and 5% CO2.
Cell density: 0.2-1 Mio. Cells/ml.
Medium: RPMI1640 GlutaMAX (No. 61870) with 10% FCS from Gibco
Cell Seeding and Treatment:
Compounds in 100% DMSO were diluted in Medium (—FCS) with 10% DMSO and further diluted according to the experiment planned.
20 μl of the compound solution was transferred in the respective wells of the 24 well plate and diluted with 2 ml cell suspension/well containing […] (final concentration of DMSO=0.1%). Compound dilution factor=100
Compounds (up to 7 concentrations) were tested in triplicates with 3 wells for the DMSO 0.1% control, incubated for 48 hours without medium change at 37° C., 5% CO2 and 95% relative humidity.
Cell Harvesting and Cell Lysate:
Transfer the cell suspension in 2.2 ml Eppendorf cups. Separate cells from medium by centrifugation (400×g; 5 min; RT); discard the supernatant. Resuspend in 1 ml PBS; centrifugation (400×g; 5 min; RT); wash cells twice with PBS. Add 100 μl Serin lysis buffer (ice cold) to the cell pellet; resuspend the pellet and store on ice for 15 minutes. Remove debris by centrifugation at 15000×g for 10 min at 4° C. Transfer 80-100 μl lysate supernatant in 96 well plate and store immediately at −80° C.
Neutrophil Elastase Activity Assay:
Frozen lysates were thawn at 37° C. for 10 minutes and stored on ice. Protein content was determined with Bradford protein assay. Lysates were diluted to 0.2-0.5 mg/ml protein in serine protease buffer+HSA.
Standard: NE (100 μg/ml stock solution in Tris-buffer; stored at −80° C.) was diluted in Tris-buffer+HSA to 750 ng/ml, and further serially diluted 1:2 for the standard curve.
Buffer, blank, standard and lysate samples were transferred into 384 well plate
Blank: 5 μl Tris-buffer+10 μl Tris-buffer+HSA+5 μl Substrate
Standard: 5 μl Tris-buffer+10 μl NE (diff. conc.)+5 μl Substrate
Lysate: 5 μl Tris-buffer+10 μl Lysat+[…] Substrate
The increase in fluorescence (Ex360 nm/Em 460 nm) is determined over 30 minutes with a Molecular Device Spectramax M5 Fluorescence Reader. Kinetic Reduction (Vmax units/sec); 4 vmax points. The amount of neutrophil elastase (ng/ml) is calculated using the standard curve and the Spectramax software. The result is interpolated to ng/mg lysate protein using excel formula functions. […] IC50 is calculated using Graphpad Prism; nonlinear fitting (log(inhibitor) vs. response—Variable slope).

SMILES	In vitro stability in human liver microsome incubations t½ [1]	IC50 [2]
CN1CC2CCC(C1)N2c1ccc(C[C@@H](C#N)NC(=O)[C@H]2N[C@@H]3CC[C@H]2C3)c(F)c1 [Example 328]		1.2 nM
N#C[C@H](Cc1ccc(-c2ccc3c(c2)COC3=O)cc1F)NC(=O)[C@H]1N[C@@H]2CC[C@H]1C2 [Example 3, (1S,2S,4R)—N-[(1S)-1-cyano-2-[2-fluoro-4-(1-oxo-3H-isobenzofuran-5-yl)phenyl]ethyl]-3-azabicyclo[2.2.1]heptane-2-carboxamide]		2.9 nM
N#C[C@H](Cc1ccc(-c2ccc(S(=O)(=O)N3CCOCC3)cc2)cc1F)NC(=O)[C@H]1N[C@@H]2CC[C@H]1C2 [Example 217]		7.5 nM
N#C[C@H](Cc1ccc(-c2csc(C(=O)N3CCN(CC(F)(F)F)CC3)c2)cc1F)NC(=O)[C@H]1N[C@@H]2CC[C@H]1C2 [Example 232]		5.2 nM
N#C[C@H](Cc1ccc([C@H]2CCN3CCOC[C@H]3C2)cc1F)NC(=O)[C@H]1N[C@@H]2CC[C@H]1C2 [Example 284]		5.3 nM
C[C@H]1CN(C)CCN1c1ccc(C[C@@H](C#N)NC(=O)[C@H]2N[C@@H]3CC[C@H]2C3)c(F)c1 [Example 188]		4.4 nM
Cn1c(=O)c2cc(CC(C#N)NC(=O)[C@H]3N[C@@H]4CC[C@H]3C4)ccc2c2ccc(C#N)cc21 (stereo partly shown) [Example 303]		8.3 nM
CN1CCC(Oc2ccc(C[C@@H](C#N)NC(=O)[C@H]3N[C@@H]4CC[C@H]3C4)c(F)c2)CC1 [Example 319, (1S,2S,4R)—N-[(1S)-1-cyano-2-[2-fluoro-4-[(1-methyl-4-piperidyl)oxy]phenyl]ethyl]-3-azabicyclo[2.2.1]heptane-2-carboxamide]		9.3 nM
CN1CC=C(c2ccc(C[C@@H](C#N)NC(=O)[C@H]3N[C@@H]4CC[C@H]3C4)c(F)c2)CC1 [Example 223]		3 nM
N#C[C@H](Cc1ccc(C2=CCN3CCOCC3C2)cc1F)NC(=O)[C@H]1N[C@@H]2CC[C@H]1C2 (stereo partly shown) [Example 281]		1.9 nM
CN1CC2(C1)CN(c1ccc(C[C@@H](C#N)NC(=O)[C@H]3N[C@@H]4CC[C@H]3C4)c(F)c1)C2 [Example 330]		37.7 nM
N#C[C@H](Cc1ccc([C@@H]2CCN3CCOC[C@H]3C2)cc1F)NC(=O)[C@H]1N[C@@H]2CC[C@H]1C2 [Example 283]		4.5 nM
CC1CN(c2ccc(C[C@@H](C#N)NC(=O)[C@H]3N[C@@H]4CC[C@H]3C4)c(F)c2)C(C)CN1C (stereo partly shown) [Example 196]		5.3 nM
N#C[C@H](Cc1ccc(-c2csc(C(=O)N3CCN(C4CC4)CC3)c2)cc1F)NC(=O)[C@H]1N[C@@H]2CC[C@H]1C2 [Example 229]		2.9 nM
CN1CCC2CN(c3ccc(C[C@@H](C#N)NC(=O)[C@H]4N[C@@H]5CC[C@H]4C5)c(F)c3)CC21 (stereo partly shown) [Example 349]		2.8 nM
CCN1CC=C(c2ccc(C[C@@H](C#N)NC(=O)[C@H]3N[C@@H]4CC[C@H]3C4)c(F)c2)CC1 [Example 320]		3.7 nM
CN(C)CC1CCCN(c2ccc(C[C@@H](C#N)NC(=O)[C@H]3N[C@@H]4CC[C@H]3C4)c(F)c2)C1 (stereo partly shown) [Example 345]		6.9 nM
CN(C)CCn1cc(-c2ccc(C[C@@H](C#N)NC(=O)[C@H]3N[C@@H]4CC[C@H]3C4)c(F)c2)ccc1=O [Example 342]		24.7 nM
N#C[C@H](Cc1ccc(-c2ccc(C(=O)N3CCn4nccc4C3)s2)cc1F)NC(=O)[C@H]1N[C@@H]2CC[C@H]1C2 [Example 237]		9.6 nM
N#C[C@H](Cc1ccc(N2CCN3CCOCC3C2)cc1F)NC(=O)[C@H]1N[C@@H]2CC[C@H]1C2 (stereo partly shown) [Example 43]		9.2 nM
N#C[C@H](Cc1cc2c(=O)[nH]c3ccccc3c2cc1F)NC(=O)[C@H]1N[C@@H]2CC[C@H]1C2 [Example 322]		2.1 nM
COCCN1CCN(c2ccc(C[C@@H](C#N)NC(=O)[C@H]3N[C@@H]4CC[C@H]3C4)c(F)c2)CC1C (stereo partly shown) [Example 178]		3.6 nM
CN1CCN(C(=O)c2coc(-c3ccc(C[C@@H](C#N)NC(=O)[C@H]4N[C@@H]5CC[C@H]4C5)c(F)c3)c2)CC1 [Example 241]		5.3 nM
COCCN1CCN(C(=O)c2cc(-c3ccc(C[C@@H](C#N)NC(=O)[C@H]4N[C@@H]5CC[C@H]4C5)c(F)c3)cs2)CC1 [Example 228]		4.6 nM
CN1CCN(C(=O)c2cccc(-c3ccc(C[C@@H](C#N)NC(=O)[C@H]4N[C@@H]5CC[C@H]4C5)c(F)c3)c2)CC1 [Example 245]		3.8 nM
CS(=O)(=O)c1cc(OCC(F)(F)F)cc(-c2ccc(C[C@@H](C#N)NC(=O)[C@H]3N[C@@H]4CC[C@H]3C4)c(F)c2)c1 [Example 276]	2.17 h	
CN1CCN(S(=O)(=O)c2cccc(-c3ccc(C[C@@H](C#N)NC(=O)[C@H]4N[C@@H]5CC[C@H]4C5)c(F)c3)c2)CC1 [Example 224]		1 nM
CN1CCN(S(=O)(=O)c2cc(-c3ccc(C[C@@H](C#N)NC(=O)[C@H]4N[C@@H]5CC[C@H]4C5)c(F)c3)ccc2F)CC1 [Example 339]		0.6 nM
N#C[C@H](Cc1ccc(-c2ccc(S(=O)(=O)N3CCCCC3)cc2)cc1F)NC(=O)[C@H]1N[C@@H]2CC[C@H]1C2 [Example 177]		9.2 nM
CS(=O)(=O)c1cccc(-c2ccc(C[C@@H](C#N)NC(=O)[C@H]3N[C@@H]4CC[C@H]3C4)c(F)c2)c1 [Example 4, (1S,2S,4R)—N-[(1S)-1-cyano-2-[2-fluoro-4-(3-methylsulfonylphenyl)phenyl]ethyl]-3-azabicyclo[2.2.1]heptane-2-carboxamide]		6.4 nM

Second part, the compound after the results:

In vitro stability in human liver microsome incubations t½ [1]	IC50 [2]	SMILES
2.17 h		CN1C(=O)Cc2ccc(-c3ccc(CC(C#N)NC(=O)[C@H]4N[C@@H]5CC[C@H]4C5)c(F)c3)cc21 (stereo partly shown) [Example 15]
2.17 h		N#CC(Cc1ccc(-c2cnn(-c3ccccc3)c2)cc1F)NC(=O)[C@H]1N[C@@H]2CC[C@H]1C2 (stereo partly shown) [Example 78]
	7.8 nM	N#CC(Cc1cc2c(=O)[nH]c3ccccc3c2cc1F)NC(=O)[C@H]1N[C@@H]2CC[C@H]1C2 (stereo partly shown) [Example 294]
	9.1 nM	CN1Cc2cc(-c3ccc(C[C@@H](C#N)NC(=O)[C@H]4N[C@@H]5CC[C@H]4C5)c(F)c3)ccc2S1(=O)=O [Example 169]
	6.5 nM	N#C[C@H](Cc1ccc(N2CCC(N3CCOCC3)CC2)cc1F)NC(=O)[C@H]1N[C@@H]2CC[C@H]1C2 [Example 193]
	5.5 nM	CO[C@@H]1C[C@@H]2CN(c3ccc(C[C@@H](C#N)NC(=O)[C@H]4N[C@@H]5CC[C@H]4C5)c(F)c3)CCN2C1 [Example 269]
	6.9 nM	N#C[C@H](Cc1ccc(-c2csc(C(=O)N3CCN4CCOCC4C3)c2)cc1F)NC(=O)[C@H]1N[C@@H]2CC[C@H]1C2 (stereo partly shown) [Example 234]
	8.8 nM	COCCN1C(=O)Cc2ccc(-c3ccc(C[C@@H](C#N)NC(=O)[C@H]4N[C@@H]5CC[C@H]4C5)c(F)c3)cc21 [Example 158]
	3.7 nM	CN1CCC2(CC1)CC(c1ccc(C[C@@H](C#N)NC(=O)[C@H]3N[C@@H]4CC[C@H]3C4)c(F)c1)C2 [Example 358]
	8 nM	CN1CCCN(c2ccc(C[C@@H](C#N)NC(=O)[C@H]3N[C@@H]4CC[C@H]3C4)c(F)c2)CC1 [Example 247]
	3.9 nM	CN1CCN(C(=O)c2ccc(-c3ccc(C[C@@H](C#N)NC(=O)[C@H]4N[C@@H]5CC[C@H]4C5)c(F)c3)cc2)CC1 [Example 185]
	7.3 nM	N#C[C@H](Cc1ccc(N2CCN(C3CC3)CC2)cc1F)NC(=O)[C@H]1N[C@@H]2CC[C@H]1C2 [Example 187]
2.17 h		CS(=O)(=O)c1ccc(-c2ccc(C[C@@H](C#N)NC(=O)[C@H]3N[C@@H]4CC[C@H]3C4)c(F)c2)cc1OCC(F)F [Example 252]
